Assay results: article PMC9085437, “Silica-coated magnetic iron oxide functionalized with hydrophobic polymeric ionic liquid: a promising nanoscale sorbent for simultaneous extraction of antidiabetic drugs from human plasma prior to their quantitation by HPLC” (RSC Advances, 2018)

Test: Pharmacokinetic assessment in healthy fed male volunteers after oral tablet administration, plasma quantified by MSPE-HPLC-UV
Conditions: human, in vivo, 25 mg
Procedure: The chromatographic analysis was conducted using a Waters alliance e2695, (Massachusetts, USA) system which was equipped with a Waters 2487 dual wavelength detector and C18 TMS endcapping/reversed phase column (Luna 5 μm C18 100 A HPLC column 250 × 4.6 mm id, Phenomenex Co, Torrance, CA) at 40 °C. The mobile phase which being used in an isocratic mode was composed of potassium dihydrogen phosphate and sodium dodecyl sulfate (0.01 M, pH 6): acetonitrile (55 : 45, v/v) and passed through column with flow rate of 1 mL min^−1 (the mobile phase was filtered and degassed daily prior to use in HPLC). […] The column effluent was monitored at UV wavelength of 215 nm and the injection volume was 20.0 μL. The mobile phase was filtered by passing it through a 0.2 μm membrane filter (Millipore, Bedford, MA, USA).
Every frozen human plasma were firstly thawed at room temperature and placed into a sample glass tube. Preparation of plasma before MSPE method was based on protein precipitation with aid of acetonitrile. In this regard, the plasma (1.9 mL) was fortified with 100.0 μL of required concentrations of analytes followed by mixing with 2.0 mL ACN. The obtained solution was vortexed for 1 min and centrifuged for 5 min at 3500 rpm. Then, ACN content of the clear supernatant was evaporated under nitrogen stream and the remaining sample was transferred into 4.0 mL buffer solution at pH 4.0. Sample volume after evaporation under nitrogen stream was about 2 mL and total sample volume after transferring to 4 mL buffer solution was about 6 mL. 5.0 mL of the deproteinized samples containing target drugs were subjected to the extraction procedure for subsequent analysis.
Initially, 5.0 mL of the deproteinized human plasma (initial volume of spiked plasma sample 2.0 mL) was placed into a glass tube and 10.0 mg of magnetic Fe3O4@SiO2@PIL was added to the sample. The mixture was sonicated for 4 min to totally disperse the magnetic sorbent through the matrix and complete the extraction of target drugs at room temperature. Analyte-loaded sorbent was collected from the sample solution by exposing the glass tube to a powerful neodymium–iron–boron (Nd–Fe–B) magnet (5 × 5 × 4 cm, 0.8 tesla), and the upper phase was poured out. Later, the adsorbed analytes were eluted by 1.0 mL of acetonitrile (0.5 mL every time and washed two times) to desorb the analytes. Elution process was completed during 2 min in the ultrasonic bath. The magnet was used again to separate the sorbent and then the total volume of eluted solution was collected and evaporated to dryness under stream of the nitrogen. The dry residue was re-dissolved in 100.0 μL of mobile phase and stirred for 1 min. Finally, 20.0 μL of this solution was injected into the HPLC-UV system for analysis.
Eight healthy fed male volunteers within the age range of 28–42 years old were enrolled in these studies. […] The plasma samples were immediately transferred into a clean polypropylene tube and stored at −18 °C until being used. All assessments were approved by “The Committee For Research Ethics” of Department of Pharmacy and Pharmaceutical Sciences Research Center, Tehran University of Medical Sciences. In the next experiments, a single oral dose administration of Jardiance tablet (25 mg EMPA) was performed to four volunteers and the blood samples were collected and treated as the previous experiments. Each real sample was extracted at optimal conditions by the proposed procedure and the mean plasma concentration–time curve was obtained.

**Q.** Which results are given for `OC[C@H]1O[C@@H](c2ccc(Cl)c(Cc3ccc(O[C@H]4CCOC4)cc3)c2)[C@H](O)[C@@H](O)[C@@H]1O` [EMPA, empagliflozin]?
**A.** AUC(0-inf): 1430 ± 151 ng·h/mL; AUC(0-t): 1400 ± 122 ng·h/mL; Cmax: 216 ± 44.1 ng/mL; Tmax: 2.9 ± 0.3 h; half-life: 7.2 ± 1.1 h
